The values that follow come from patent US5618943A, “Acetylenes disubstituted with a 5 OXO substituted tetrahydronaphthyl group and with an aryl or heteroaryl group having retinoid-like biological activity” (Allergan, priority 1994, dated 1997).

The test system of experiment [1] is ornithine decarboxylase (ODC). The experiment in a line: ODC assay: inhibition of TPA induction of ornithine decarboxylase (retinoic acid-like activity). The class given is biochemical. As to conditions: concentration of the test compound which causes 80% inhibition in the ODC assay; TPA-induced. From the text: The retinoic acid-like activity of these compounds is confirmed through the classic measure of retinoic acid activity involving the effects of retinoic acid on ornithine decarboxylase. The original work on the correlation between retinoic acid and decrease in cell proliferation was done by Verma & Boutwell, Cancer Research, 1977, 37,2196-2201. That reference discloses that ornithine decarboxylase (ODC) activity increased precedent to polyamine biosynthesis. It has been established elsewhere that increases in polyamine synthesis can be correlated or associated with cellular proliferation. Thus, if ODC activity could be inhibited, cell hyperproliferation could be modulated. Although all cases for ODC activity increases are unknown, it is known that 12-0-tetradecanoylphorbol-13-acetate (TPA) induces ODC activity. […] Activity of exemplary compounds of the present invention in the abovedescribed ODC assay is disclosed in Table 2 which provides the IC80 concentration for the respective exemplary compound. ("IC80 " is that concentration of the test compound which causes 80% inhibition in the ODC assay. By analogy, "IC60, for example, is that concentration of the test compound which causes 60% inhibition in the ODC assay.)

Experiment [2] relates to ornithine decarboxylase (ODC). As to conditions: literature statement; cited from earlier work.

`CCOC(=O)c1ccc(C#Cc2ccc3c(c2)C(C)(C)CCC3=O)cc1` [Compound 1, Ethyl 4-[(5,6,7,8-tetrahydro-8,8-dimethyl-5-oxonaphth-2-yl)ethynyl]benzoate]: the IC80 conc in experiment [1] worked out at 1.60 nmols.

`CCOC(=O)c1ccc(C#Cc2ccc3c(c2)C(=O)CCC3(C)C)cc1` [Compound 2, Ethyl 4-[(5,6,7,8-tetrahydro-8,8-dimethyl-5-oxonaphth-3-yl)ethynyl]benzoate]: in experiment [1], the IC80 conc is recorded as 0.85 nmols.

With `CCOC(=O)c1ccc(C#Cc2ccc3c(c2)C(C)(C)CCC3=O)nc1` [Compound 5, Ethyl 6-[(5,6,7,8-tetrahydro-8,8-dimethyl-5-oxonaphth-2-yl)ethynyl]nicotinate], the IC80 conc in experiment [1] came out at 113 nmols.

`CC1(C)CCC(=O)c2ccc(C#Cc3ccc(C(=O)O)cc3)cc21` [Compound 7, 4-[(5,6,7,8-tetrahydro-8,8-dimethyl-5-oxonaphth-2-yl)ethynyl]benzoic acid]: the IC80 conc in experiment [1] was found to be 1.60 nmols.

As to `CC1(C)CCC(=O)c2cc(C#Cc3ccc(C(=O)O)cc3)ccc21` [Compound 8, 4-[(5,6,7,8-tetrahydro-8,8-dimethyl-5-oxonaphth-3yl)ethynyl]benzoic acid], the IC80 conc in experiment [1] is on record as 1.37 nmols.

`CCOC(=O)c1ccc(C#Cc2ccc3c(c2)C2(CCC3(C)C)SCCCS2)cc1` [Compound 58, Ethyl. 4-[[5,6,7,8-tetrahydro-8,8-dimethyl-5-(2-(1,3-dithiane))naphth-3-yl]ethynyl]benzoate] returned an IC80 conc in experiment [1] of 26.12 nmols.

With `CCOC(=O)c1ccc(C#Cc2ccc3c(c2)C(C)(C)CCC32SCCCS2)cc1` [Compound 59, Ethyl 4-[[5,6,7,8-tetrahydro-8,8-dimethyl-5-(2-(1,3-dithiane))napth-2-yl]ethynyl]benzoate], the IC80 conc in experiment [1] was determined as 23.00 nmols.

On to `CC1(C)CCC2(SCCCS2)c2cc(C#Cc3ccc(C(=O)O)cc3)ccc21` [Compound 60, 4-[[5,6,7,8-tetrahydro-8,8-dimethyl-5-(2-(1,3-dithiane))naphth-3-yl]ethynyl]benzoic acid], for which the IC80 conc in experiment [1] is reported as 2.60 nmols.

On to `CC1=C(/C=C/C(C)=C/C=C/C(C)=C/C(=O)O)C(C)(C)CCC1` [Retinoic acid], for which the “inhibition of TPA induction of ODC activity (in words)” value in experiment [2] is reported as “inhibits this induction of ODC activity”.
